What all share (assay): ERK1/2 phosphorylation
Type in all cases: cell-based

One test has as its target T1, hCTR E294A (Homo sapiens, UniProt P30988, E294A).
T1 construct: c-Myc (N); expressed in transfected cells
T1 sequence (P30988 25-474 E294A): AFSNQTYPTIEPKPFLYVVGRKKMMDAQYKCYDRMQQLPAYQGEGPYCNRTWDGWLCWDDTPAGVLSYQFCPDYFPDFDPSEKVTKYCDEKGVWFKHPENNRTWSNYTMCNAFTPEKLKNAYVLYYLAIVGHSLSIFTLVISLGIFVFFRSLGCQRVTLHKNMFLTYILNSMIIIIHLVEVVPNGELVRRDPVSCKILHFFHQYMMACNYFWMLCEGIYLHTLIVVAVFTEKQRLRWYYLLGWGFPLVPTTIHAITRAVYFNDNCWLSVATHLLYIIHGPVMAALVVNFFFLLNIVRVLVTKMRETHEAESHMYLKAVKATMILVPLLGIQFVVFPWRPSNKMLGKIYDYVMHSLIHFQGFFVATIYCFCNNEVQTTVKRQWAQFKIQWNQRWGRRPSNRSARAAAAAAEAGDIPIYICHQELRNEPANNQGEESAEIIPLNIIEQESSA
The note with it: read-out: Emax (% WT). In a few lines: (§1)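 Overnight-plated cells at 2.5 × 10^4/well are stimulated, and ERK1/2 phosphorylation is referenced to the 10% FBS response at 6 min before logistic curve fitting.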

A further test concerns the target T2, hCTR Y374A (Homo sapiens, UniProt P30988, Y374A).
T2 construct: c-Myc (N); expressed in transfected cells
T2 sequence (P30988 25-474 Y374A): T1 sequence (P30988 25-474 E294A) with A270E, Y350A
The note with it: pERK maximal response, CV1-FlpIn cells, mean ± S.E.M. A digest of the protocol:
as §1

The target in another test is T3, hCTR F359A (Homo sapiens, UniProt P30988, F359A).
T3 construct: expressed in transfected cells
T3 sequence (P30988 25-474 F359A): T1 sequence (P30988 25-474 E294A) with A270E, F335A
The note with it: read-out: Emax (% WT). In a few lines:
as §1

In the next test the target is T4, hCTR L298A (Homo sapiens, UniProt P30988, L298A).
T4 construct: c-Myc (N); expressed in transfected cells
T4 sequence (P30988 25-474 L298A): T1 sequence (P30988 25-474 E294A) with A270E, L274A
To be noted: pERK maximal response, CV1-FlpIn cells, mean ± S.E.M. In a few lines: as §1

The target of a further test is T5, hCTR I279A (Homo sapiens, UniProt P30988, I279A).
T5 construct: expressed in transfected cells
T5 sequence (P30988 25-474 I279A): T1 sequence (P30988 25-474 E294A) with I255A, A270E
To be noted: pERK maximal response, CV1-FlpIn cells, mean ± S.E.M. A digest of the protocol:
as §1

Residue numbers refer to the chain shown, from its start.

With `CC[C@H](C)[C@H](NC(=O)[C@H](C)NC(=O)[C@@H](NC(=O)[C@H](CCC(N)=O)NC(=O)[C@@H]1CCCN1C(=O)[C@H](Cc1ccccc1)NC(=O)[C@@H](NC(=O)[C@H](Cc1c[nH]cn1)NC(=O)[C@H](Cc1ccccc1)NC(=O)[C@H](CCCCN)NC(=O)[C@H](CC(N)=O)NC(=O)[C@H](Cc1ccccc1)NC(=O)[C@H](CC(=O)O)NC(=O)[C@H](CCC(N)=O)NC(=O)[C@@H](NC(=O)[C@H](Cc1ccc(O)cc1)NC(=O)[C@@H](NC(=O)CNC(=O)[C@H](CC(C)C)NC(=O)[C@H](CCSC)NC(=O)[C@@H]1CSSC[C@H](N)C(=O)NCC(=O)N[C@@H](CC(N)=O)C(=O)N[C@@H](CC(C)C)C(=O)N[C@@H](CO)C(=O)N[C@@H]([C@@H](C)O)C(=O)N1)[C@@H](C)O)[C@@H](C)O)[C@@H](C)O)[C@@H](C)O)C(=O)NCC(=O)N[C@H](C(=O)NCC(=O)N[C@@H](C)C(=O)N1CCC[C@H]1C(N)=O)C(C)C` [hCT], the Emax at hCTR E294A came out at 125 ± 10%; at hCTR Y374A, 94 ± 4%; on hCTR F359A, 153 ± 8%; at hCTR L298A, 84 ± 10%; on hCTR I279A, 143 ± 10%.

By Emax is commonly meant the maximal effect, on the per cent scale that the assay sets.

The values are drawn from article PMC5908784, “Extracellular loops 2 and 3 of the calcitonin receptor selectively modify agonist binding and efficacy” (Biochemical Pharmacology, 2018).
